Reference: BindingDB's records for doi:10.1016/j.ejmech.2008.03.019 (Institute of Pharmacology of The Polish Academy of Sciences, 2008)

Target: T1, 5-hydroxytryptamine receptor 1A (Rattus norvegicus, UniProt P19327)
T1 sequence (P19327 whole entry): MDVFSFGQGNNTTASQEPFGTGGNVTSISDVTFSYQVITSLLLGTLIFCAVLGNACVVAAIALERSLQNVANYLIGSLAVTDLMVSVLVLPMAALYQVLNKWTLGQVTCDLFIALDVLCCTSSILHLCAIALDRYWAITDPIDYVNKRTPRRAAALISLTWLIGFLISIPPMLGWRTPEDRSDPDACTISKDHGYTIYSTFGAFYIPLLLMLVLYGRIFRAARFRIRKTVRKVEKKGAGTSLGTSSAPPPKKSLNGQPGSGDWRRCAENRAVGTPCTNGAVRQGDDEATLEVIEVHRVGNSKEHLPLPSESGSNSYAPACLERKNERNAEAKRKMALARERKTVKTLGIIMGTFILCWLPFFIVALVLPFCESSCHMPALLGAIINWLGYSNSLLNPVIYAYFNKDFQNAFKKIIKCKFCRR
Assay: Displacement of [3H]8-OH-DPAT from 5HT1A receptor in rat hippocampal membranes

- Ki: 331 nM
SMILES: CC1CC2(C)CC(=O)C1C1C(=O)N(OCCCN3CCN(c4ccccc4F)CC3)C(=O)C12 (stereo unspecified) [4-{3-[4-(2-Fluorophenyl)piperazin-1-yl]propoxy}-1,11-dimethyl-4-azatricyclo[5.2.2.0(2,6)]undecane-3,5,8-trione]
